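Exposure lasted 48 hours, with cells grown in 96-well plates and compounds tested at five concentrations. The concentration for 50% growth inhibition is given as GI50.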 The source made the active and inactive calls. No stated cut-off is given here; in the data, active = GI50 up to about 1.1 µM and inactive = higher. Where a SMILES comes first, the peptide text is derived from it. [ ]: non-standard residue; d: D form. The star is where a group is joined. ξ: configuration not given here. NMeF = CN[C@@H](Cc1ccccc1)C(=O)O; NMeV = CN[C@H](C(=O)O)C(C)C; ξNMeN = CNC(CC(N)=O)C(=O)O; NMeA = CN[C@@H](C)C(=O)O; ξNMeV = CNC(C(=O)O)C(C)C; Boc = CC(C)(C)OC(=O)*

Among the test systems are 786-0; ACHN; EKVX; HCT-116; HOP-62; KM12; MDA-MB-435; MDA-N; Malme-3M; NCI-H226; NCI-H522; NCI/ADR-RES; OVCAR-3; SK-OV-3; SN12C; SNB-75; SR; T47D; UACC-257; UO-31.
Holding throughout (assay): NCI tumour cell line growth inhibition, 48 h

On to `CC(=O)OCC(OC(C)=O)C(OC(C)=O)C(/C=N\Nc1nc2ccccc2c(=O)[nH]1)=N\Nc1nc2ccccc2c(=O)[nH]1` (stereo not given), for which the GI50 was > 100 µM (inactive) in the assay on 786-0; > 100 µM (inactive) in the assay on ACHN; > 100 µM (inactive) in the assay on EKVX; > 100 µM (inactive) with HCT-116; > 100 µM (inactive) in the assay with HOP-62; 4.68 µM (inactive) in the assay with KM12. Moreover, the GI50 in the assay on MDA-MB-435, in the assay with MDA-N, in the assay on Malme-3M, in the assay with NCI-H226, with NCI-H522 and with NCI/ADR-RES was > 100 µM (inactive) throughout. In addition, the GI50 in the assay on OVCAR-3 is > 100 µM (inactive); in the assay on SK-OV-3, > 100 µM (inactive); in the assay with SN12C it was > 100 µM (inactive); in the assay on SNB-75, > 100 µM (inactive); with SR it was 63.8 µM (inactive); in the assay with T47D, 47 µM (inactive). The GI50 was 17.3 µM (inactive) in the assay on UACC-257 and > 100 µM (inactive) in the assay with UO-31.
Consider `N#Cc1c2ccc([N+](=O)[O-])cc2c(=O)n2c1[nH]c1ccc(C(F)(F)F)cc12`, for which the GI50 in the assay with 786-0 was 40.6 µM (inactive); in the assay on ACHN, 48 µM (inactive); in the assay on EKVX, > 100 µM (inactive); in the assay on HCT-116 it was 10.1 µM (inactive); in the assay on HOP-62, 26.9 µM (inactive); in the assay on KM12, 24.8 µM (inactive). Also, the GI50 is 54 µM (inactive) in the assay with MDA-MB-435; > 64.9 µM (inactive) with MDA-N; 41 µM (inactive) in the assay with Malme-3M; 14.3 µM (inactive) with NCI-H226; 7.28 µM (inactive) in the assay on NCI-H522; 23.2 µM (inactive) in the assay on NCI/ADR-RES. Moreover, the GI50 in the assay on OVCAR-3 was 18.2 µM (inactive); in the assay on SK-OV-3, 41.9 µM (inactive); with SN12C, > 42.4 µM (inactive); in the assay on SNB-75, 27.3 µM (inactive); in the assay on SR it was 4.07 µM (inactive); in the assay on T47D it was 32.4 µM (inactive). In addition, the GI50 with UACC-257 was > 88.7 µM (inactive); in the assay on UO-31 it was 17.5 µM (inactive).
With `O=C1/C(=C/c2ccc(O)c(O)c2)CCC/C1=C\c1ccc(O)c(O)c1`, the GI50 is 3.31 µM (inactive) in the assay on 786-0; 2.69 µM (inactive) in the assay with ACHN; 14.3 µM (inactive) in the assay with EKVX; 2.37 µM (inactive) with HCT-116; 4.13 µM (inactive) in the assay on HOP-62; 3.95 µM (inactive) in the assay with KM12. Further, the GI50 in the assay on MDA-MB-435 is 2.91 µM (inactive); with MDA-N, 3.13 µM (inactive); in the assay on Malme-3M, 2.46 µM (inactive); with NCI-H226 it was 5.6 µM (inactive); in the assay with NCI-H522, 0.729 µM (active); in the assay on NCI/ADR-RES it was 4.13 µM (inactive). Moreover, the GI50 with OVCAR-3 was 3.06 µM (inactive); in the assay with SK-OV-3, 7.96 µM (inactive); in the assay with SN12C, 4.41 µM (inactive); in the assay on SNB-75, 3.4 µM (inactive); in the assay with SR, 1.58 µM (inactive); in the assay with T47D, 3.87 µM (inactive). Also, the results for the GI50 with UACC-257 and in the assay on UO-31 were 4.51 µM (inactive) and 2 µM (inactive), respectively.
Take `COCCOC1=C(Cl)C(=O)c2c(O)ccc(O)c2C1=O`: the GI50 is 1.62 µM (inactive) with 786-0; 1.11 µM (active) in the assay on ACHN; 4.97 µM (inactive) in the assay with EKVX; 0.979 µM (active) in the assay with HCT-116; 3.33 µM (inactive) in the assay on HOP-62; 9.48 µM (inactive) in the assay on KM12. The GI50 in the assay on MDA-MB-435 is 1.02 µM (active); in the assay with MDA-N, 1.34 µM (inactive); in the assay with Malme-3M, 0.955 µM (active); with NCI-H226, 12.1 µM (inactive); with NCI-H522 it was 0.681 µM (active); in the assay with NCI/ADR-RES, 2.84 µM (inactive). Further, the GI50 was 1.09 µM (active) with OVCAR-3; 16.8 µM (inactive) in the assay on SK-OV-3; 1.92 µM (inactive) with SN12C; 5.55 µM (inactive) with SNB-75; 0.78 µM (active) with SR; 2.47 µM (inactive) in the assay with T47D. The GI50 in the assay with UACC-257 is 1.96 µM (inactive); in the assay with UO-31, 1.71 µM (inactive).
As for `COc1ccccc1/C=C1\CCC(CN(C)C)C1=O` (stereo not given), the GI50 with 786-0 is 2.16 µM (inactive); with ACHN, 8.02 µM (inactive); with EKVX, 15 µM (inactive); with HCT-116, 3.48 µM (inactive); in the assay on HOP-62, 19.5 µM (inactive); in the assay on KM12, 3.75 µM (inactive). Also, the GI50 with MDA-MB-435 is 8.83 µM (inactive); in the assay on MDA-N, 4.09 µM (inactive); in the assay with Malme-3M, 6.19 µM (inactive); in the assay on NCI-H226, 11.4 µM (inactive); with NCI-H522 it was 1.85 µM (inactive); with NCI/ADR-RES it was 7.24 µM (inactive). The GI50 with OVCAR-3 was 5.38 µM (inactive); in the assay on SK-OV-3, 19.4 µM (inactive); with SN12C it was 2.48 µM (inactive); with SNB-75 it was 8.49 µM (inactive); in the assay on SR, 6.15 µM (inactive); in the assay with T47D, 3.58 µM (inactive). Besides, the results for the GI50 in the assay with UACC-257 and with UO-31 were 10.8 µM (inactive) and 7.74 µM (inactive), respectively.
Consider `COC(=O)[C@H](C)N(C)C(=O)C(CC(N)=O)N(C)C(=O)[C@H](Cc1ccccc1)N(C)C(=O)[C@@H]1CCCN1C(=O)[C@H](C(C)C)N(C)C(=O)C(C(C)C)N(C)C(=O)[C@@H](NC(=O)OC(C)(C)C)C(C)C` (stereo not given in full) (Boc-V[ξNMeV][NMeV]P[NMeF][ξNMeN][NMeA]-OMe), for which the GI50 in the assay with 786-0 was > 50 µM (inactive); in the assay with ACHN it was > 50 µM (inactive); in the assay on EKVX, > 50 µM (inactive); in the assay on HCT-116, > 50 µM (inactive); in the assay with HOP-62, > 50 µM (inactive); with KM12, 16.4 µM (inactive). In addition, the GI50 with MDA-MB-435 is > 50 µM (inactive); with MDA-N, > 50 µM (inactive); in the assay on Malme-3M, > 75 µM (inactive); in the assay on NCI-H226, > 50 µM (inactive); in the assay on NCI-H522 it was > 50 µM (inactive); with NCI/ADR-RES it was > 50 µM (inactive). Also, the GI50 in the assay with OVCAR-3 is > 50 µM (inactive); in the assay on SK-OV-3, > 50 µM (inactive); in the assay with SN12C, > 50 µM (inactive); with SNB-75 it was 44 µM (inactive); in the assay with SR it was 21.3 µM (inactive); in the assay on T47D, > 50 µM (inactive). The GI50 with UACC-257 and with UO-31 was > 50 µM (inactive) throughout.
As for `Cc1cc(Cl)nc2nc(Cl)c(N)cc12`, the GI50 in the assay on 786-0 is 2.86 µM (inactive); with ACHN it was 5.38 µM (inactive); in the assay on EKVX it was 3.48 µM (inactive); with HCT-116, 2.48 µM (inactive); with HOP-62, 6.76 µM (inactive); with KM12 it was 5.32 µM (inactive). Further, the GI50 in the assay on MDA-MB-435 was 2.22 µM (inactive); in the assay with MDA-N, 1.88 µM (inactive); in the assay on Malme-3M it was 9.53 µM (inactive); with NCI-H226 it was 21.5 µM (inactive); in the assay on NCI-H522, 4.53 µM (inactive); with NCI/ADR-RES, 14.8 µM (inactive). Also, the GI50 was 1.87 µM (inactive) with OVCAR-3; 21.3 µM (inactive) in the assay with SK-OV-3; 1.9 µM (inactive) in the assay with SN12C; 10.6 µM (inactive) in the assay on SNB-75; 2.88 µM (inactive) in the assay with SR; 3.21 µM (inactive) in the assay with T47D. Moreover, the figures for the GI50 in the assay with UACC-257 and in the assay with UO-31 were 1.87 µM (inactive) and 3.92 µM (inactive), respectively.
On to `COc1ccc2c(c1)CC1C3(CCCCC23)CC[N+]1(C)C` (stereo not given), for which the GI50 with 786-0, with ACHN, in the assay with EKVX, in the assay on HCT-116, with HOP-62 and with KM12 was > 100 µM (inactive) throughout. Besides, the GI50 with MDA-MB-435 is 84.9 µM (inactive); with MDA-N, > 100 µM (inactive); in the assay on Malme-3M, > 100 µM (inactive); in the assay on NCI-H226, > 100 µM (inactive); with NCI-H522 it was 58.9 µM (inactive); in the assay on NCI/ADR-RES, > 100 µM (inactive). Also, the GI50 with OVCAR-3 was 75.5 µM (inactive); with SK-OV-3, > 100 µM (inactive); in the assay on SN12C, 38.7 µM (inactive); in the assay on SNB-75, 34.4 µM (inactive); with SR, > 100 µM (inactive); in the assay with T47D, > 100 µM (inactive). The GI50 in the assay with UACC-257 and in the assay on UO-31 was > 100 µM (inactive) each time.
Take `CC1CNC(c2ccc(-c3nc(-c4ccc(C5=NC(C)CN5)cc4)nc(N(C)C)n3)cc2)=N1` (stereo not given): the GI50 was 1.28 µM (inactive) in the assay with 786-0; 3.01 µM (inactive) in the assay on ACHN; 2.54 µM (inactive) in the assay on EKVX; 0.964 µM (active) in the assay with HCT-116; 1.47 µM (inactive) in the assay with HOP-62; 2.23 µM (inactive) in the assay on KM12. The GI50 was 1.46 µM (inactive) with MDA-MB-435; 1.85 µM (inactive) with MDA-N; 3.08 µM (inactive) in the assay with Malme-3M; 2.02 µM (inactive) in the assay on NCI-H226; 1.24 µM (inactive) with NCI-H522; 22 µM (inactive) in the assay on NCI/ADR-RES. Also, the GI50 with OVCAR-3 was 1.79 µM (inactive); in the assay on SK-OV-3, 1.91 µM (inactive); in the assay on SN12C, 1.47 µM (inactive); in the assay on SNB-75, 1.82 µM (inactive); with SR, 0.653 µM (active); with T47D it was 2.71 µM (inactive). Besides, the GI50 with UACC-257 was 3.08 µM (inactive); with UO-31, 7.33 µM (inactive).
Take `COc1cccc2c1C(=O)c1c(O)c3c(c(O)c1C2=O)C[C@@](O)(C(C)=O)C[C@@H]3OC1CC(N(Cc2ccccc2)Cc2ccccc2)C(O)C(C)O1` (stereo not given in full): the GI50 in the assay on 786-0 is 0.713 µM (active); with ACHN, 0.51 µM (active); with EKVX it was 39.4 µM (inactive); with HCT-116, 1.84 µM (inactive); in the assay with HOP-62, 18.8 µM (inactive); in the assay with KM12, 13.1 µM (inactive). Further, the GI50 with MDA-MB-435 is 4.53 µM (inactive); in the assay on MDA-N, 11.4 µM (inactive); with Malme-3M, 13.3 µM (inactive); in the assay on NCI-H226 it was 13.1 µM (inactive); in the assay with NCI-H522 it was 10.4 µM (inactive); in the assay on NCI/ADR-RES, 10.3 µM (inactive). Moreover, the GI50 was 22.8 µM (inactive) with OVCAR-3; 34 µM (inactive) in the assay on SK-OV-3; 8.09 µM (inactive) with SN12C; 30.1 µM (inactive) in the assay with SNB-75; 0.101 µM (active) in the assay with SR; 11.9 µM (inactive) in the assay with T47D. The GI50 in the assay with UACC-257 is 26.4 µM (inactive); with UO-31 it was 15 µM (inactive).

(Values after ChEMBL document CHEMBL1201862, “PubChem BioAssay data set” (2004).)
